Test results taken from ChEMBL document CHEMBL2203237, “Synthesis of C3-arylated-3-deazauridine derivatives with potent anti-HSV-1 activities” (Bioorg Med Chem Lett, 2012).
The source made the active and inactive calls. No cut-off for these calls is given here.

Key:
[1] = system: Human alphaherpesvirus 1; experiment: Antiviral activity against Herpes simplex virus type 1 infected in Vero cells at 0.001 ID50/cells assessed as protection against virus-induced cytopathic effect after 3 days by neutral red dye method; assay type: functional, organism-based; details: Human alphaherpesvirus 1, Vero, 72 h
[2] = system: Human alphaherpesvirus 1; experiment: Antiviral activity against Herpes simplex virus type 1 infected in Vero cells at 0.001 ID50/cells assessed as change in cell morphology after 3 days by neutral red dye method; assay type: functional, organism-based
[3] = Cytotoxicity against african green monkey Vero cells after 3 days by neutral red dye method; assay type: cell-based; details: chlorocebus sabaeus
[4] = system: Human alphaherpesvirus 1; experiment: Antiviral activity against Herpes simplex virus type 1 infected in Vero cells at 0.001 ID50/cells assessed as destruction of cell layer after 3 days by neutral red dye method; assay type: functional, organism-based
[5] = system: Human alphaherpesvirus 1; experiment: Antiviral activity against Herpes simplex virus type 1 infected in Vero cells at 0.01 ID50/cells assessed as protection against virus-induced cytopathic effect after 3 days by neutral red dye method; assay type: functional, organism-based; details: Human alphaherpesvirus 1, Vero, 72 h
[6] = system: Human alphaherpesvirus 1; experiment: Antiviral activity against Herpes simplex virus type 1 infected in Vero cells at 0.001 ID50/cells assessed as protection against virus-induced cytopathic effect at 200 ug/ml after 3 days by neutral red dye method relative to control; assay type: functional
[7] = system: Human alphaherpesvirus 1; experiment: Ratio of acyclovir EC50 to compound EC50 for Herpes simplex virus type 1; assay type: functional

Compound	EC50 [1] [µM]	Activity [2]	CC50 at 72 h [3] [µM]	Activity [4]	EC50 [5] [µM]	Activity [6] [%]	ratio [7]
COc1ccc(-c2c(O)ccn([C@@H]3O[C@H](CO)[C@@H](O)[C@H]3O)c2=O)cc1OC	> 100	Active	> 400	Active	–	–	–
COc1ccc(-c2c(O)ccn([C@@H]3O[C@H](COC(C)=O)[C@@H](OC(C)=O)[C@H]3OC(C)=O)c2=O)cc1OC	36.6	Active	> 200	Active	> 100	75	2.1
CCOc1ccc(-c2c(O)c(-c3ccccc3)cn([C@@H]3O[C@H](COC(C)=O)[C@@H](OC(C)=O)[C@H]3OC(C)=O)c2=O)cc1	–	–	> 200	–	> 100	–	–
Cc1ccc(-c2c(O)ccn([C@@H]3O[C@H](CO)[C@@H](O)[C@H]3O)c2=O)cc1	> 100	Active	> 400	Active	–	–	–
O=c1c(CCc2ccccc2)c(O)ccn1[C@@H]1O[C@H](CO)[C@@H](O)[C@H]1O	> 100	Active	> 400	Active	–	–	–
CCOc1ccc(-c2c(O)ccn([C@@H]3O[C@H](CO)[C@@H](O)[C@H]3O)c2=O)cc1	–	–	> 200	–	> 100	–	–
COc1c(C)cc(-c2c(O)ccn([C@@H]3O[C@H](CO)[C@@H](O)[C@H]3O)c2=O)cc1C	–	–	> 200	–	> 100	–	–
COc1c(C)cc(-c2c(O)ccn([C@@H]3O[C@H](COC(C)=O)[C@@H](OC(C)=O)[C@H]3OC(C)=O)c2=O)cc1C	–	–	> 200	–	> 100	–	–
CC(=O)OC[C@H]1O[C@@H](n2ccc(O)c(-c3ccc(C4CCCCC4)cc3)c2=O)[C@H](OC(C)=O)[C@@H]1OC(C)=O	–	–	> 200	–	49	–	45
COc1ccc(-c2cn([C@@H]3O[C@H](CO)[C@@H](O)[C@H]3O)c(=O)cc2O)cc1	–	–	> 200	–	> 100	–	–
COc1ccc(-c2c(O)ccn([C@@H]3O[C@H](CO)[C@@H](O)[C@H]3O)c2=O)cc1	20	Active	> 400	Active	> 100	82	3.8
O=c1c(-c2ccc3c(c2)OCO3)c(O)ccn1[C@@H]1O[C@H](CO)[C@@H](O)[C@H]1O	> 100	Active	> 400	Active	–	–	–
CCOc1ccc(-c2c(O)c(-c3ccccc3)cn([C@@H]3O[C@H](CO)[C@@H](O)[C@H]3O)c2=O)cc1	–	–	> 200	–	> 100	–	–
COc1cc(-c2c(O)ccn([C@@H]3O[C@H](COC(C)=O)[C@@H](OC(C)=O)[C@H]3OC(C)=O)c2=O)cc(OC)c1OC	–	–	> 200	–	> 100	–	–
Nc1nc2c(ncn2COCCO)c(=O)[nH]1 [ACYCLOVIR]	0.76	–	> 200	–	22	–	–
CC(=O)OC[C@H]1O[C@@H](n2ccc(O)c(-c3ccc(C(C)(C)C)cc3)c2=O)[C@H](OC(C)=O)[C@@H]1OC(C)=O	–	–	> 200	–	> 100	–	–
O=c1c(-c2ccccc2)c(O)ccn1[C@@H]1O[C@H](CO)[C@@H](O)[C@H]1O	> 100	Active	> 400	Active	–	–	–
CC(=O)OC[C@H]1O[C@@H](n2ccc(O)c(-c3ccc(OC(F)(F)F)cc3)c2=O)[C@H](OC(C)=O)[C@@H]1OC(C)=O	–	–	> 200	–	> 100	–	–

Compound	EC50 [1] [µM]	Activity [2]	CC50 at 72 h [3] [µM]	Activity [4]	EC50 [5] [µM]	Activity [6] [%]	ratio [7]
COc1cc(-c2c(O)ccn([C@@H]3O[C@H](CO)[C@@H](O)[C@H]3O)c2=O)cc(OC)c1OC	–	–	> 200	–	> 100	–	–
CC(C)(C)c1ccc(-c2c(O)ccn([C@@H]3O[C@H](CO)[C@@H](O)[C@H]3O)c2=O)cc1	–	–	> 200	–	> 100	–	–
CC(=O)OC[C@H]1O[C@@H](n2ccc(O)c(-c3ccc(-c4ccccc4)cc3)c2=O)[C@H](OC(C)=O)[C@@H]1OC(C)=O	–	–	> 200	–	33	–	67
CC(=O)OC[C@H]1O[C@@H](n2cc(-c3ccccc3)c(O)cc2=O)[C@H](OC(C)=O)[C@@H]1OC(C)=O	–	–	> 200	–	> 100	–	–
CCOc1ccc(-c2c(O)ccn([C@@H]3O[C@H](COC(C)=O)[C@@H](OC(C)=O)[C@H]3OC(C)=O)c2=O)cc1	–	–	> 200	–	> 100	–	–
CC(=O)OC[C@H]1O[C@@H](n2ccc(O)c(-c3ccccc3)c2=O)[C@H](OC(C)=O)[C@@H]1OC(C)=O	> 100	Active	> 400	Active	–	–	–
COc1ccc(-c2cn([C@@H]3O[C@H](COC(C)=O)[C@@H](OC(C)=O)[C@H]3OC(C)=O)c(=O)cc2O)cc1	–	–	> 200	–	> 100	–	–
CC(=O)OC[C@H]1O[C@@H](n2ccc(O)c(CCc3ccccc3)c2=O)[C@H](OC(C)=O)[C@@H]1OC(C)=O	> 100	Active	> 400	Active	–	–	–
O=c1c(-c2ccc(-c3ccccc3)cc2)c(O)ccn1[C@@H]1O[C@H](CO)[C@@H](O)[C@H]1O	–	–	> 200	–	> 100	–	–
CC(=O)OC[C@H]1O[C@@H](n2ccc(O)c(-c3ccc4c(c3)OCO4)c2=O)[C@H](OC(C)=O)[C@@H]1OC(C)=O	> 100	Active	> 400	Active	–	–	–
COc1ccc(-c2c(O)ccn([C@@H]3O[C@H](COC(C)=O)[C@@H](OC(C)=O)[C@H]3OC(C)=O)c2=O)cc1	10.5	Active	> 200	Active	> 100	85	7.2
CC(=O)OC[C@H]1O[C@@H](n2ccc(O)c(-c3ccc(C)cc3)c2=O)[C@H](OC(C)=O)[C@@H]1OC(C)=O	> 100	Active	> 400	Active	–	–	–
O=c1cc(O)c(-c2ccccc2)cn1[C@@H]1O[C@H](CO)[C@@H](O)[C@H]1O	–	–	> 200	–	> 100	–	–
O=c1c(-c2ccc(C3CCCCC3)cc2)c(O)ccn1[C@@H]1O[C@H](CO)[C@@H](O)[C@H]1O	–	–	> 200	–	> 100	–	–
CC(=O)OC[C@H]1O[C@@H](n2ccc(O)c(-c3ccc(S(C)(=O)=O)cc3)c2=O)[C@H](OC(C)=O)[C@@H]1OC(C)=O	–	–	> 200	–	> 100	–	–
O=c1cc(O)c2ccccc2n1[C@@H]1O[C@H](CO)[C@@H](O)[C@H]1O	–	–	> 200	–	> 100	–	–
CC(=O)OC[C@H]1O[C@@H](n2c(=O)cc(O)c3ccccc32)[C@H](OC(C)=O)[C@@H]1OC(C)=O	–	–	> 200	–	> 100	–	–
